Experimental data reported in PMC8977642, “Unsupervised Mining of HLA-I Peptidomes Reveals New Binding Motifs and Potential False Positives in the Community Database” (Frontiers in Immunology, 2022).

Target: HLA-B*14:02 (Homo sapiens, UniProt P01889, A93T/A95T/C349S/D138N/D201E/E187T/E204Q/H137Y/K202T/Q94N/R155S/R180L/S121W/S35A/Y140F/Y195H/Y91C)
Experiment: REVEAL MHC-peptide binding assay (ProImmune)
Settings: for Binding Test (binding activity as percentage of positive control): relative to a known high-affinity T cell epitope for HLA-B*14:02, synthesized peptides, standard error 3 percentage points; for HLA binding activity (in words): REVEAL MHC-peptide binding assay, versus positive control
Excerpt: To test whether outlier peptides identified by unsupervised motif clustering are false positives or true ligands with very weak binding affinity, we performed an HLA binding assay on 59 newly identified antigens for HLA-B*14:02 ( Supplementary Table 3 , 13 outliers and 46 non-outlier peptides). […] For LPFCRPGPEGQL, this peptide was likely called an outlier because the middle arginine residue was not predicted to take part in the 9-mer binding motif by NetMHCpan (the predicted core motif was LPFGPEGQL).
Figure 3 HLA binding assay for HLA-B*14:02. Peptide synthesis and binding assay were performed by ProImmune, Ltd. (see Methods). (A) Distributions of binding scores, measured as the percentages of the binding activity compared to a positive control, for clustered peptides (n = 46) and outlier peptides (n = 13). (B) Comparison of predicted percentage ranks of eluted ligand (% rank) and binding scores. The orange and red dashed lines indicate the 2% rank and 0.5% rank thresholds for weak and strong binders, respectively.
The binding activities of selected 59 newly identified candidate antigens for HLA-B*14:02 ( Supplementary Table 3 ) were assessed using the REVEAL MHC-peptide binding assay provided by ProImmune, Ltd. (Oxford, UK). Peptides were synthesized and quality checked using MALDI-TOF mass spectrometry by ProImmune, Ltd. (Oxford, UK). Binding activities were reported as percentage relative to the affinity of a positive control (a known high-affinity T cell epitope for HLA-B*14:02). According to the experiment report provided by the company, the standard error of the reported affinities is 3 percentage points.

Sequence	Binding Test (binding activity as percentage of positive control)	HLA binding activity (in words)
SQYQRLLCI [candidate antigen for HLA-B*14:02, non-outlier]	80.3%	
VAPGKDLTK [candidate antigen for HLA-B*14:02, non-outlier]	0%	
LGFTHHCL [candidate antigen for HLA-B*14:02, non-outlier]	47.6%	
PLGMNQLQAL [candidate antigen for HLA-B*14:02, non-outlier]	0.3%	
QTWWHGVL [candidate antigen for HLA-B*14:02, non-outlier]	74.6%	
QPAEHLQL [candidate antigen for HLA-B*14:02, non-outlier]	49.4%	
LPFCHSEL [candidate antigen for HLA-B*14:02, non-outlier]	60.2%	
SCRVHKII [candidate antigen for HLA-B*14:02, non-outlier]	8.3%	
DQFLKICL [candidate antigen for HLA-B*14:02, non-outlier]	62.6%	
QQLCHQTL [candidate antigen for HLA-B*14:02, non-outlier]	56.8%	
DQVGGLGR [candidate antigen for HLA-B*14:02, non-outlier]	0.2%	
LPIIHCTL [candidate antigen for HLA-B*14:02, non-outlier]	56.4%	
SSSKGSLGGGF [candidate antigen for HLA-B*14:02, non-outlier]	0.2%	
REQFSSRGS [candidate antigen for HLA-B*14:02, outlier]	0%	
IHTLVESL [candidate antigen for HLA-B*14:02, non-outlier]	0.2%	
HPASHPEL [candidate antigen for HLA-B*14:02, non-outlier]	29.9%	
LNVLHLDT [candidate antigen for HLA-B*14:02, non-outlier]	5%	
QAYMNQRKL [candidate antigen for HLA-B*14:02, non-outlier]	0.2%	
LPFCRPGPEGQL [candidate antigen for HLA-B*14:02, outlier]	75.9%	high binding affinity
DRYLPGETF [candidate antigen for HLA-B*14:02, non-outlier]	61.4%	

Sequence	Binding Test (binding activity as percentage of positive control)	HLA binding activity (in words)
LSSLSLPILI [candidate antigen for HLA-B*14:02, outlier]	0.1%	
SRLDSVLLL [candidate antigen for HLA-B*14:02, non-outlier]	43.9%	
CHIYHHAL [candidate antigen for HLA-B*14:02, non-outlier]	55.5%	
QQILRDAL [candidate antigen for HLA-B*14:02, non-outlier]	56.2%	
TYDDATKTF [candidate antigen for HLA-B*14:02, outlier]	0.1%	
DQYKRETI [candidate antigen for HLA-B*14:02, non-outlier]	33.9%	
AQGGVLPNI [candidate antigen for HLA-B*14:02, outlier]	0.2%	
GLGILDPVLL [candidate antigen for HLA-B*14:02, non-outlier]	0.1%	
NQFQRQAAV [candidate antigen for HLA-B*14:02, non-outlier]	63.6%	
QVWGTLTSL [candidate antigen for HLA-B*14:02, non-outlier]	0.1%	
DLPEHAVL [candidate antigen for HLA-B*14:02, non-outlier]	14.2%	
QQFAHPPL [candidate antigen for HLA-B*14:02, non-outlier]	82.8%	
AAPARVSVA [candidate antigen for HLA-B*14:02, outlier]	0.2%	
ESGPSIVHRKCF [candidate antigen for HLA-B*14:02, outlier]	0.1%	
LNQRAQAVL [candidate antigen for HLA-B*14:02, outlier]	3.1%	
HQITHQAM [candidate antigen for HLA-B*14:02, non-outlier]	52.4%	
CDFVHQAL [candidate antigen for HLA-B*14:02, non-outlier]	41.7%	
QQGTHLSL [candidate antigen for HLA-B*14:02, non-outlier]	47.7%	
TRIEKRIVI [candidate antigen for HLA-B*14:02, non-outlier]	54.9%	
FGYSRHTPF [candidate antigen for HLA-B*14:02, non-outlier]	24.8%	

Sequence	Binding Test (binding activity as percentage of positive control)	HLA binding activity (in words)
TYDDATKTFTVTE [candidate antigen for HLA-B*14:02, non-outlier]	0%	
ETASDLLLHSAL [candidate antigen for HLA-B*14:02, non-outlier]	59.3%	
LRNGGHFVI [candidate antigen for HLA-B*14:02, outlier]	61.2%	high binding affinity
LSYVSIMAAI [candidate antigen for HLA-B*14:02, non-outlier]	0.2%	
LTGDIHAITAA [candidate antigen for HLA-B*14:02, outlier]	0.2%	
QGLSILLPKI [candidate antigen for HLA-B*14:02, outlier]	0%	
YQILHECL [candidate antigen for HLA-B*14:02, non-outlier]	50.1%	
CEVTHQGL [candidate antigen for HLA-B*14:02, non-outlier]	25.4%	
YATLHHVI [candidate antigen for HLA-B*14:02, non-outlier]	42.2%	
SPTCHACL [candidate antigen for HLA-B*14:02, non-outlier]	19.8%	
DNAVHCVI [candidate antigen for HLA-B*14:02, non-outlier]	26.2%	
QEVKQGKLL [candidate antigen for HLA-B*14:02, non-outlier]	0.1%	
CRFEGQFSI [candidate antigen for HLA-B*14:02, non-outlier]	63.5%	
LLSPQQTI [candidate antigen for HLA-B*14:02, non-outlier]	0.8%	
IRLENEIQ [candidate antigen for HLA-B*14:02, non-outlier]	0.1%	
CQVTHISL [candidate antigen for HLA-B*14:02, non-outlier]	56.7%	
CVTIHEAL [candidate antigen for HLA-B*14:02, non-outlier]	32.1%	
AVSMIPPLLL [candidate antigen for HLA-B*14:02, outlier]	0.2%	
